Measurements published in US5439944A, “Red blood cell substitute emulsions containing alkyl- or alkylglyucerophosphoryl choline surfactants and methods of use” (priority 1993, dated 1995).

What was measured:
[1] = K. Yokoyama et al; cited from earlier work
[2] = system: rat whole blood; experiment: Hemolysis screening of surfactants; type: cell-based; details: 5% surfactant in 0.9% saline admixed 1:1 with rat whole blood; visually distinct red hue of supernate
Method: Surfactant Examples 1a-1k according to general Structure I above, and 2a of Structure II above, were prepared following the above procedures.
(§1) Surfactants were screened initially by preparing 5% solutions/dispersions of the surfactant in 0.9% saline and admixing 1:1 with rat whole blood. Centrifugation (6 minutes) at 2400 rpm afforded packed cells and a supernate. […] The discoloration of the supernate was not quantified colorimetrically.

[3] = system: Sprague Dawley rats; experiment: Preliminary acute toxicity screen; type: in vivo; details: 5% sonicated dispersion in 0.9% saline, two Sprague Dawley rats, 14 days
[4] = Organ distribution 14 days after infusion (Table V); type: in vivo, rats; details: for Kidney / Liver / Lung / Spleen / Survival / Hct: 14 days after infusion of 40 cc/Kg; for Hct: hematocrit
Method: The impact of the emulsions of Table IV on organ distribution of PFC was then determined by sacrificing the test animals 14 days after infusion.

[5] = Perfluorochemical circulatory blood residence time (fluorocrit); type: in vivo, rats; details: perfluorochemical remaining at 48 hours
Method: The emulsions of Tables II and III were studied in a randomized, ten animal per emulsion experiment in which each animal was infused with 20 cc/Kg of emulsion and sacrificed at 48 hours to determine the circulatory perfluorochemical or perfluorocarbon content called "fluorocrit" and abbreviated "Fct". The Fct represents that percentage of the blood that is perfluorocarbon in v/v %.
After 48 hrs., the animals were anesthetized, the chest cavity was opened, and a blood sample (1-2ml) was withdrawn from the still beating heart. Three to 4 drops of the sample were added to each of three previously tared 4 ml vials containing 10%KOH/EtOH (1.0 ml). The vials were weighed to determine the amount of blood added, then reweighed after an internal standard mixture of 1% octane in CFCl3 (1.5-2.0ml) was added. H2 O was added to the vial until full, then the vial was placed on a rotary shaker at 240 rpm for 20 minutes. The lower layer was withdrawn, and passed through a glass wool plugged pasteur pipette containing silica gel (0.3-0.4g). […] The program parameters specified a hold period at 40° C. for 4 minutes, followed by a 10° C./minute temperature rise until 140° was attained.

[6] = Emulsion mean particle size and stability after 4 days in serum albumin/Lactated Ringer's at 37° C.; type: physicochemical
Description: The surfactants of Table I were used to make 40 volume % (v/v) perfluorochemical emulsions. In the above described European Pat. Appln. […] Therefore, those perfluorochemical emulsions were used as a control for comparison with the perfluorochemical emulsions of this invention.
For comparison with the data of Table II, the study was repeated with a constant loading of 2 w/v % surfactant, and 2 w/v % safflower oil adjuvant for the control and surfactants of this invention.

[7] = Solubility/dispersion of surfactant in 0.9% saline; type: physicochemical; details: 5% solution/dispersion in 0.9% saline
Method: as §1

[8] = Organ distribution, additional separate study (Table VI); type: in vivo, rats
[9] = Organ distribution, additional separate study (Table VII); type: in vivo, rats
[10] = Blood hematology; type: in vivo, rats; details: Table VIII, accredited outside laboratories
Description: The effects on the liver and lung were not as pronounced in Table VI as in Table V. However, with respect to Table VII, it is believed that the smaller values obtained for the liver and spleen are also real.

| Structure (SMILES) | Hemolytic [2] | Survival at 40 cc/Kg of 5% solution [3] | Kidney [4] [g/100 g] | Liver [4] [g/100 g] | Lung [4] [g/100 g] | Spleen [4] [g/100 g] | Survival [4] | Hct [4] [v/v %] | other results |
| --- | --- | --- | --- | --- | --- | --- | --- | --- | --- |
| FC(F)(F)C(F)(F)C(F)(F)N(C(F)(F)C(F)(F)C(F)(F)F)C(F)(F)C(F)(F)C(F)(F)F [perfluorotripropylamine] |  |  |  |  |  |  |  |  | half life in the liver and other body tissues (in words) [1]: longer than desirable |
| CCCCCCCCCCCCCCCCCCOC(COCCCCCCCCCCCCCC)COP(=O)([O-])OCC[N+](C)(C)C (stereo not shown) [Cpd 1g, 1-tetradecyl-2-octadecylglycero-3-phosphoryl choline] | No | 0/2 | 0.94 | 7.52 | 0.55 | 1.49 | 6/10 | 39.0 |  |
| CCCCCCCCCCCCCCCCOCC(COP(=O)([O-])OCC[N+](C)(C)C)OCCCCCCCCCCCCCC (stereo not shown) [Cpd 1e, 1-hexadecyl-2-tetradecylglycero-3-phosphoryl choline] | No | 0/2 | 1.06 | 7.97 | 0.57 | 1.55 | 9/10 | 35.8 |  |
| CCCCCCCCCCCCCCOCC(COP(=O)([O-])OCC[N+](C)(C)C)OCCCCCCCCCCCCCC (stereo not shown) [Cpd 1b, 1,2-ditetradecylglycero-3-phosphoryl choline] | hemolytic and Yes |  |  |  |  |  |  |  |  |
| CCCCCCCCCCCCCCCCOC(COCCCCCCCCCCCCCC)COP(=O)([O-])OCC[N+](C)(C)C (stereo not shown) [Cpd 1k, 1-tetradecyl-2-hexadecylglycero-3-phosphoryl choline] |  |  | 1.22 | 7.76 | 0.64 | 2.09 | 9/10 | 36.5 |  |
| CCCCCCCCCCCCCCCCOCC(COP(=O)([O-])OCC[N+](C)(C)C)OCCCCCCCCCCCCCCCC (stereo not shown) [Cpd 1c, 1,2-dihexadecylglycero-3-phosphoryl choline] | No | 2/2 |  |  |  |  |  |  |  |
| CCCCCCCCCCCCCCCCCCOCC(COP(=O)([O-])OCC[N+](C)(C)C)OCCCCCCCCCCCCCC (stereo not shown) [Cpd 1f, 1-octadecyl-2-tetradecylglycero-3-phosphoryl choline] | No | 2/2 |  |  |  |  |  |  | circulatory blood residence / stability in the circulatory blood system (in words) [5]: increased stabilities in the circulatory blood system |
| CCCCCCCC/C=C\CCCCCCCCOCC(COP(=O)([O-])OCC[N+](C)(C)C)OCCCCCCCC/C=C\CCCCCCCC (stereo not shown) [Cpd 1i, 1,2-Dioleylglycerophosphoryl choline] | No | 2/2 | 0.96 | 7.47 | 0.64 | 2.56 | 8/10 | 34.7 | Mean Particle Size ([6]; Table II, 1.8 w/v % Cpd., 2.0 w/v % oil, 40 v/v % PFC emulsion, sterilized 15 min 121° C.): 304 nM; 4 days Serum ([6]; Table II, 1.8 w/v % Cpd., 2.0 w/v % oil, particle size after 4 days at 37° C. in serum albumin/Lactated Ringer's): 258 nM; Mean Particle Size ([6]; Table III, 2 w/v % surfactant, 2 w/v % safflower oil): 323 nM; 4 days Serum ([6]; Table III, 2 w/v % surfactant, 2 w/v % safflower oil, 4 days at 37° C. in serum albumin/Lactated Ringer's): 301 nM |
| CCCCCCCCCCCCCCCCCCOCC(COP(=O)([O-])OCC[N+](C)(C)C)OCCCCCCCCCCCCCCCCCC (stereo not shown) [Cpd 1d, 1,2-di-octadecylglycero-3-phosphoryl choline] | No |  |  |  |  |  |  |  | Solubility (entry in survival column) [7]: insoluble cpd |
| CCCCCCCCOCC(COP(=O)([O-])OCC[N+](C)(C)C)OCCCCCCCC (stereo not shown) [Cpd 1a, 1,2-dioctylglycero-3-phosphoryl choline] | hemolytic and Yes |  |  |  |  |  |  |  |  |
| CCCCCCCCCCCCCCCCCCOCC(COP(=O)([O-])OCC[N+](C)(C)C)OCCCCCCCCCCCCCCCC (stereo not shown) [Cpd 1j, 1-octadecyl-2-hexadecylglycero-3-phosphoryl choline] |  |  | 0.89 | 6.64 | 0.57 | 1.66 | 9/10 | 44.4 | circulatory blood residence / stability in the circulatory blood system (in words) [5]: increased stabilities in the circulatory blood system; drop in hematocrit after infusion (in words) ([4]; vs control): so striking; Kidney [8]: 0.97 g/100 g; Liver [8]: 7.44 g/100 g; Lung [8]: 0.98 g/100 g; Spleen [8]: 1.70 g/100 g; Survival [8]: 10/10; Hct ([8]; hematocrit): 36.1 v/v %; Kidney [9]: 0.901 g/100 g; Liver [9]: 7.39 g/100 g; Lung [9]: 0.828 g/100 g; Spleen [9]: 1.46 g/100 g; Survival [9]: 10/10; Hct ([9]; hematocrit): 37.7 v/v %; Platelets [10]: 1024222; RBC [10]: 5.42; Reticulocytes [10]: 313281; Hemoglobin ([10]; in g/dL (unit assumed)): 11.04 |
| CCCCCCCCCCCCCCCCCCOC(COCCCCCCCCCCCCCCCC)COP(=O)([O-])OCC[N+](C)(C)C (stereo not shown) [Cpd 1h, 1-hexadecyl-2-octadecylglycero-3-phosphoryl choline] | No | 0/2 |  |  |  |  |  |  |  |
